According to patent US11596639B2, “Substituted indole Mcl-1 inhibitors” (Vanderbilt University, priority 2016, dated 2023):
Like-named read-outs stand apart in the source and are kept apart here.

What was measured:
Mcl-1 = Mcl-1 (Homo sapiens (Human), UniProt Q07820); experiment: Fluorescence polarization anisotropy (FPA) competition assay, FITC-Bak or FITC-Bim BH3 peptide; type: binding; settings: read-out: Ki for Inhibition of Mcl-1 by FPA assay
[1] = tested on: H929 human cancer cell lines; experiment: Cellular viability / proliferation (Cell TiterGlo, 72 h); type: cell-based
Procedure, shortened: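 Compounds were added as 2-fold serial dilutions from 50 μM (final DMSO <1%) to H929 cells seeded 1,000 per well in 10% FBS medium one day earlier.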

[2] = Homo sapiens, NCI-H929, 72 h, read-out: GI50 on cellular proliferation of H929 human cancer cell lines, H929 cells, 72 h, Cell TiterGlo, 10% FBS
[3] = read-out: GI50 on cellular proliferation of H929 human cancer cell lines, H929 cells, 72 h, Cell TiterGlo, 10% FBS

Chain of Mcl-1 (Q07820 172-327): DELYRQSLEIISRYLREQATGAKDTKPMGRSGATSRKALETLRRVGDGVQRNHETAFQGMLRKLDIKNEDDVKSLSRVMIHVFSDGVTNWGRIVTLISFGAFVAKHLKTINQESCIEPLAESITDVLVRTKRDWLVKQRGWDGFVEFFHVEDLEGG

| Compound | Ki (Mcl-1) [nM] | GI50 [1, 2] [nM] | GI50 [1, 3] [nM] |
| --- | --- | --- | --- |
| Cc1cc(OCCCc2c3n(c4c(-c5c(C)nn(C)c5C)c(Cl)ccc24)[C@H](C)CN(c2cn(C)c4ccc(C5=NCCO5)cc24)C3=O)cc(C)c1Cl [Example 428, (R)-7-Chloro-10-(3-(4-chloro-3,5-dimethylphenoxy)propyl)-2-(5-(4,5-dihydrooxazol-2-yl)-1-methyl-1H-indol-3-yl)-4-methyl-6-(1,3,5-trimethyl-1H-pyrazol-4-yl)-3,4-dihydropyrazino[1,2-a]indol-1(2H)-one] | 2 | 920 |  |
| Cc1cc(OCCCc2c3n(c4c(-c5c(C)nn(C)c5C)c(Cl)ccc24)[C@H](C)CN(c2cn(C)c4ccc(C(=O)Nc5ccccc5)cc24)C3=O)cc(C)c1Cl [Example 285, 3-[(4R)-7-chloro-10-[3-(4-chloro-3,5-dimethyl-phenoxy)propyl]-4-methyl-1-oxo-6-(1,3,5-trimethylpyrazol-4-yl)-3,4-dihydropyrazino[1,2-a]indol-2-yl]-1-methyl-N-phenyl-indole-5-carboxamide] | < 1 | 5300 |  |
| Cc1cc(OCCCc2c3n(c4c(-c5c(C)nn(C)c5C)c(Cl)ccc24)[C@H](C)CN(c2cccc4cc(C(N)=O)n(C)c24)C3=O)cc(C)c1Cl [Example 377, (R)-7-(7-chloro-10-(3-(4-chloro-3,5-dimethylphenoxy)propyl)-4-methyl-1-oxo-6-(1,3,5-trimethyl-1H-pyrazol-4-yl)-3,4-dihydropyrazino[1,2-a]indol-2(1H)-yl)-1-methyl-1H-indole-2-carboxamide] | 4.9 |  | 630 |
| Cc1cc(OCCCc2c3n(c4c(-c5c(C)nn(C)c5C)c(Cl)ccc24)CCCN(c2cc(C(=O)O)cc4c2ccn4CCN(C)C)C3=O)cc(C)c1Cl [Example 11, 4-(8-Chloro-11-(3-(4-chloro-3,5-dimethylphenoxy)propyl)-1-oxo-7-(1,3,5-trimethyl-1H-pyrazol-4-yl)-4,5-dihydro-1H-[1,4]diazepino[1,2-a]indol-2(3H)-yl)-1-(2-(dimethylamino)ethyl)-1H-indole-6-carboxylic acid] | 4 | 9900 |  |
| COC(=O)c1ccc2c(c1)c(N1C[C@@H](C)n3c(c(CCCOc4cc(C)c(Cl)c(C)c4)c4ccc(Cl)c(-c5c(C)nn(C)c5C)c43)C1=O)cn2C (single isomer, unassigned) [Example 204] | 1.1 | 1000 |  |
| CCn1cc(C(=O)O)c2c(N3C[C@@H](C)n4c(c(CCCOc5cc(C)c(Cl)c(C)c5)c5ccc(Cl)c(-c6c(C)nn(C)c6C)c54)C3=O)cccc21 [Example 173, 4-[(4R)-7-chloro-10-[3-(4-chloro-3,5-dimethyl-phenoxy)propyl]-4-methyl-1-oxo-6-(1,3,5-trimethylpyrazol-4-yl)-3,4-dihydropyrazino[1,2-a]indol-2-yl]-1-ethyl-indole-3-carboxylic acid] | 2.7 | 3300 |  |
| Cc1cc(OCCCc2c3n(c4c(-c5c(C)nn(C)c5C)c(Cl)ccc24)[C@H](C)CN(c2nn(C)c4cccc(C(=O)O)c24)C3=O)cc(C)c1Cl [Example 179, (R)-3-(7-Chloro-10-(3-(4-chloro-3,5-dimethylphenoxy)propyl)-4-methyl-1-oxo-6-(1,3,5-trimethyl-1H-pyrazol-4-yl)-3,4-dihydropyrazino[1,2-a]indol-2(1H)-yl)-1-methyl-1H-indazole-4-carboxylic acid] | < 1 |  | 4700 |
| Cc1cc(OCCCc2c3n(c4c(-c5c(C)n[nH]c5C)c(Cl)ccc24)[C@H](C)CN(c2cc(C(=O)O)cc4c2ccn4C)C3=O)cc(C)c1Cl [Example 71, (R)-4-(7-chloro-10-(3-(4-chloro-3,5-dimethylphenoxy)propyl)-6-(3,5-dimethyl-1H-pyrazol-4-yl)-4-methyl-1-oxo-3,4-dihydropyrazino[1,2-a]indol-2(1H)-yl)-1-methyl-1H-indole-6-carboxylic acid] | < 1 | 3300 |  |
| Cc1cc(OCCCc2c3n(c4c(-c5c(C)nn(C)c5C)c(Cl)ccc24)[C@H](C)CN(c2cn(C)c4cccc(C(=O)O)c24)C3=O)cc(C)c1Cl [Example 106, (R)-3-(7-Chloro-10-(3-(4-chloro-3,5-dimethylphenoxy)propyl)-4-methyl-1-oxo-6-(1,3,5-trimethyl-1H-pyrazol-4-yl)-3,4-dihydropyrazino[1,2-a]indol-2(1H)-yl)-1-methyl-1H-indole-4-carboxylic acid] | < 1 | 790 |  |
| Cc1cc(OCCCc2c3n(c4c(-c5c(C)nn(C)c5C)c(Cl)ccc24)[C@H](C)CN(c2cn(C)c4ccc(-c5n[nH]c(=O)o5)cc24)C3=O)cc(C)c1Cl [Example 444, (R)-5-(3-(7-Chloro-10-(3-(4-chloro-3,5-dimethylphenoxy)propyl)-4-methyl-1-oxo-6-(1,3,5-trimethyl-1H-pyrazol-4-yl)-3,4-dihydropyrazino[1,2-a]indol-2(1H)-yl)-1-methyl-1H-indol-5-yl)-1,3,4-oxadiazol-2(3H)-one] | 1.3 | 220 |  |
| COc1ccc(N2C[C@@H](C)n3c(c(CCCOc4cc(C)c(Cl)c(C)c4)c4ccc(Cl)c(-c5c(C)nn(C)c5C)c43)C2=O)c2c1cc(C(N)=O)n2C [Example 412, (R)-7-(7-Chloro-10-(3-(4-chloro-3,5-dimethylphenoxy)propyl)-4-methyl-1-oxo-6-(1,3,5-trimethyl-1H-pyrazol-4-yl)-3,4-dihydropyrazino[1,2-a]indol-2(1H)-yl)-4-methoxy-1-methyl-1H-indole-2-carboxamide] | 1.3 | 450 |  |
| Cc1cc(OCCCc2c3n(c4c(-c5c(C)nn(C)c5C)c(Cl)ccc24)[C@H](C)CN(c2cc4cc(C(=O)O)ccc4n2C)C3=O)cc(C)c1Cl [Example 174, 2-[(4R)-7-chloro-10-[3-(4-chloro-3,5-dimethyl-phenoxy)propyl]-4-methyl-1-oxo-6-(1,3,5-trimethylpyrazol-4-yl)-3,4-dihydropyrazino[1,2-a]indol-2-yl]-1-methyl-indole-5-carboxylic acid] | 4.2 | 6300 |  |
| COc1ccc(N2C[C@@H](C)n3c(c(CCCOc4cc(C)c(Cl)c(C)c4)c4ccc(Cl)c(-c5c(C)nn(C)c5C)c43)C2=O)c2c1c(C(=O)O)cn2C [Example 445, (R)-7-(7-Chloro-10-(3-(4-chloro-3,5-dimethylphenoxy)propyl)-4-methyl-1-oxo-6-(1,3,5-trimethyl-1H-pyrazol-4-yl)-3,4-dihydropyrazino[1,2-a]indol-2(1H)-yl)-4-methoxy-1-methyl-1H-indole-3-carboxylic acid] | 2.2 | 820 |  |
| Cc1cc(OCCCc2c3n(c4c(-c5c(C)nn(C)c5C)c(Cl)ccc24)[C@H](C)CN(c2cc(OCCN4CCCC4)cc4cc(C(=O)O)n(C)c24)C3=O)cc(C)c1Cl [Example 460, (R)-7-(7-Chloro-10-(3-(4-chloro-3,5-dimethylphenoxy)propyl)-4-methyl-1-oxo-6-(1,3,5-trimethyl-1H-pyrazol-4-yl)-3,4-dihydropyrazino[1,2-a]indol-2(1H)-yl)-1-methyl-5-(2-(pyrrolidin-1-yl)ethoxy)-1H-indole-2-carboxylic acid] | 1.7 | 420 |  |
